Assays:
[1] = aqueous solution including 40% of a cosolvent and 10% of a surfactant or inclusion compound forming agent (hydroxypropyl-β-cyclodextrin); cited from earlier work
[2] = Dissolution test (USP paddle method, purified water); assay type: physicochemical; conditions: after 3 hours; 900 mL purified water, paddle 50 rpm, 25 mg IH-901 equivalent
Method: The dissolution profile of a drug from the solid dispersion prepared in Example 2 was evaluated. IH-901, which had been used to prepare the solid dispersion of […], was used as a control group. The dissolution test was carried out under the conditions that the second method (paddle method) of the dissolution test methods in the general test method of the United states Phamacopoeia was used, 900 mL of purified water was used as a test liquid, and the rotational speed of a paddle was 50 rpm. 25 mg of IH-901 (control group) or the solid dispersion prepared in Example 2 corresponding to 25 mg of IH-901 was dissolved in a dissolution liquid, left for 180 minutes and then filtered. Then, the content of IH-901 in the filtered solution was measured by high performance liquid chromatography. The high performance liquid chromatograph is commercially available from Hitachi Co., Ltd. The analysis of high performance liquid chromatography was conducted under the conditions of a C18 column (Luna, 5 um, 250 mm, Phenomenex Corp., U.S.A), mobile phase of acetonitrile:water (70:30), a flow rate of 1 mL/min, a detection wavelength of 205 nm and an injection volume of 50 ul. In FIG. 1, the X-axis represents time passage, and the Y-axis represents dissolution rate (%). Further, in FIG. 1, the raw material is represented as ◯, and the solid dispersion prepared in Example 2 is represented by […].

[3] = oral administration; cited from earlier work

CC(C)=CCC[C@](C)(O[C@@H]1O[C@H](CO)[C@@H](O)[C@H](O)[C@H]1O)[C@H]1CC[C@]2(C)[C@@H]1[C@H](O)C[C@@H]1[C@@]3(C)CC[C@H](O)C(C)(C)[C@@H]3CC[C@]12C [IH-901, 20-O-β-D-glucopyranosyl-20(S)-protopanaxadiol]
solubility of IH-901 in an aqueous solution [1]: ≤ 10000 µg/mL | dissolution rate [2]: about 3% | bioavailability [3]: 3.5%
